Tests used:
[1] = target: T1, human toll like receptor 8 (hTLR8) (Homo sapiens, UniProt Q9NR97); experiment: hTLR8 in-vitro functional assay (HEK-Blue hTLR8 SEAP reporter); type: cell-based; conditions: HEK-Blue hTLR8 cells, overnight incubation
T1 construct: host or cells: HEK293 (HEK-Blue hTLR8)
T1 sequence (Q9NR97 27-1041): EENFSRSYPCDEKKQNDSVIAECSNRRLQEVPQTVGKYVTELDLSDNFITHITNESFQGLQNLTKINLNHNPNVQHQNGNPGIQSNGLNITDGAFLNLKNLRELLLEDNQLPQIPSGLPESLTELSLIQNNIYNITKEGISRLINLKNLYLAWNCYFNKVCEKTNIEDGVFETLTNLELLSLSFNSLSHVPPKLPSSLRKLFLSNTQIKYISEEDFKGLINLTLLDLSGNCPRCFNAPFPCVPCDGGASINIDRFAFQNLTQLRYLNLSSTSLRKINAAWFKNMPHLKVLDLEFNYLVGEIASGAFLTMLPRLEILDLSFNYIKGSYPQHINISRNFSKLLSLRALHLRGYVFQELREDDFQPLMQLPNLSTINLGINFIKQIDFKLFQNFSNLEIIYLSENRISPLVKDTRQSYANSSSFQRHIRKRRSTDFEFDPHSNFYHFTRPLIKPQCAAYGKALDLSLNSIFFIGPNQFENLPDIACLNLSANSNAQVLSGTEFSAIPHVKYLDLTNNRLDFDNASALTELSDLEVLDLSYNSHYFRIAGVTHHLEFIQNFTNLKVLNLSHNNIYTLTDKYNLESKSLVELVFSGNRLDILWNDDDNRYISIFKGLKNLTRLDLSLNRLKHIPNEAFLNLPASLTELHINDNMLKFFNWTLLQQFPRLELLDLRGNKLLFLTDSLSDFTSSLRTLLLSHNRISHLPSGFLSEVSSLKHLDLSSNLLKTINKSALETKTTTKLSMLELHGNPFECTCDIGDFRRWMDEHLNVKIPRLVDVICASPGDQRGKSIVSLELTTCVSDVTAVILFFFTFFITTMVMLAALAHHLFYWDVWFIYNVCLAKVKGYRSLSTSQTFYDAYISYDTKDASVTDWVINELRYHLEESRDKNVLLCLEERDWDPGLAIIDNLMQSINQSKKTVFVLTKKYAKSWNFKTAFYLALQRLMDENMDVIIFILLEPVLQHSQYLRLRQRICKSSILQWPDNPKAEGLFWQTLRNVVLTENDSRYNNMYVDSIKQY

S. pneumoniae serotype 3 = type: in vivo, female Swiss-Webster mice; conditions: mouse
RSV A strain (M37) = experiment: In vivo immunogenicity with RSV antigen, RSV microneutralization assay; design: species or system female BALB/c mice; conditions: 0.5 μg bivalent RSV antigen alone or mixed with 2 nmol adjuvant, intramuscular days 0 and 21, sera day 35
Method: In two independent in vivo immunogenicity studies, female BALB/c mice were immunized intramuscularly twice three weeks apart (days 0 and 21) with 0.5 μg of RSV antigen alone or mixed with 2 nmol of Example 1 adjuvant (Compound 1). Sera were collected at day 35 to determine RSV neutralization antibody titers (nAb). The RSV antigen tested was bivalent comprising a RSV F Protein of Subtype A comprising the sequence of SEQ ID NO: 1 and SEQ ID NO: 2, as well as a RSV F Protein of Subtype B comprising the sequence of SEQ ID NO: 3 and SEQ ID NO: 4.
50% nAb responses against RSV A strain (M37) were measured by an RSV microneutralization assay at 2 weeks post dose 2.

[2] = target: T2, human toll like receptor 7 (hTLR7) (Homo sapiens, UniProt Q9NYK1); experiment: hTLR7 in-vitro functional assay (HEK-Blue hTLR7 SEAP reporter); type: cell-based; conditions: HEK-Blue hTLR7 cells, overnight incubation
T2 construct: host or cells: HEK293 (HEK-Blue hTLR7)
T2 sequence (Q9NYK1 27-1049): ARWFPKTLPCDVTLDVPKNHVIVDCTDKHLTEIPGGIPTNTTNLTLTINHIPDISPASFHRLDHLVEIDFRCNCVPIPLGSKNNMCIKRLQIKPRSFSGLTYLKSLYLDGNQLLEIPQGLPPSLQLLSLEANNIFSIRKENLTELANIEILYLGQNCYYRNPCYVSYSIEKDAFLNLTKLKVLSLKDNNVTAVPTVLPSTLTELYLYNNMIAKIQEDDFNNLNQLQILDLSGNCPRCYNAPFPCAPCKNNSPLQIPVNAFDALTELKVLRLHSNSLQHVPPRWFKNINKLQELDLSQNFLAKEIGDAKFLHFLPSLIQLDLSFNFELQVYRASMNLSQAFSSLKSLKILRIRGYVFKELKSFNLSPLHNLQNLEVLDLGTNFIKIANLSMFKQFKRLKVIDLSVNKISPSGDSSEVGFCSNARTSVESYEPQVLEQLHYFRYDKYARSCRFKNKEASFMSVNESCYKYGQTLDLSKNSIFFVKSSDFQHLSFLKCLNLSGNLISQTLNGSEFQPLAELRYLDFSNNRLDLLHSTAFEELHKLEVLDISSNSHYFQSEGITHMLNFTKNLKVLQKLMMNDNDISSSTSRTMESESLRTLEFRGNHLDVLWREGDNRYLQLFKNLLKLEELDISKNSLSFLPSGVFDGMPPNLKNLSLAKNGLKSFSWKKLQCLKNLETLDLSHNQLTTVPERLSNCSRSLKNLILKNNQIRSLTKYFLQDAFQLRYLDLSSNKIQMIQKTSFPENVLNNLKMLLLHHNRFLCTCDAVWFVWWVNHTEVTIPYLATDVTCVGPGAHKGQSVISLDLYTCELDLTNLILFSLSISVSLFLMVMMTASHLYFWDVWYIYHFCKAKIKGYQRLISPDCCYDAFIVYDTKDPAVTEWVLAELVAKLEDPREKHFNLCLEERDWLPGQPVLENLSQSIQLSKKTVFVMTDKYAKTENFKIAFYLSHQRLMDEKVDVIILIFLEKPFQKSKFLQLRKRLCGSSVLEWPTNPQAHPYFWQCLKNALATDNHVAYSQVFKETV

`CCCCc1nc2c(N)nc3cc(CCCN4CCN(C(=O)CCOCCOCCOCCOCCOCCOCCOCCOCCOCCOCCOCCOCCOCCOCCOCCOCCOCCOCCOCCOCCOCCOCCOCCOCCNC(=O)CCOCCOCCOCCOCCNC(=O)O[C@H]5CC[C@@]6(C)C(=CC[C@H]7[C@@H]8CC[C@H]([C@H](C)CCCC(C)C)[C@@]8(C)CC[C@@H]76)C5)CC4)ccc3c2n1CC(C)(CO)CO` [Compound 1, (3beta)-cholest-5-en-3-yl {91-[4-(3-{4-amino-2-butyl-1-[3-hydroxy-2-(hydroxymethyl)-2-methylpropyl]-1H-imidazo[4,5-c]quinolin-7-yl}propyl)piperazin-1-yl]-15,91-dioxo-3,6,9,12,19,22,25,28,31,34,37,40,43,46,49,52,55,58,61,64,67,70,73,76,79,82,85,88-octacosaoxa-16-azahennonacont-1-yl}carbamate] was tested, and the EC50 [1] was 1360 nM, the “OPA geometric mean titers (GMT)” value (S. pneumoniae serotype 3; 0.1 μg S. pneumoniae serotype 3-CRM197 antigen with adjuvant (2 nmol; AlPO4 100 μg), IM weeks 0 and 3, sera week 5) was 833 and the “OPA geometric mean titers compared with reference adjuvants” value (S. pneumoniae serotype 3; S. pneumoniae serotype 3 antigen, versus aluminum phosphate and free TLR 7/8 agonist) was “higher average OPA geometric mean titers than aluminum phosphate, as well as the free TLR 7/8 agonist molecule”. For the same compound, the “50% neutralizing antibody titers (nAb) to RSV, GMT” value (RSV A strain (M37); Study 1) was 7502, the “50% neutralizing antibody titers (nAb) to RSV, GMT” value (RSV A strain (M37); Study 2) was 5362 and the EC50 [2] was 122 nM.

Source: US20250135006A1, “AMPHIPHILIC TLR7/8 ADJUVANTS AND USES THEREOF” (Pfizer Inc., priority 2023, published 2025)
